The values below come from patent US20110045083A1, “USE LARCH WOOD FOR TREATING INFLAMMATION” (priority 2007, published 2011).

“And” between values parts separate entries of the source, which are not always exact repeats. Equal entries are not always repeated. “Also recorded” adds a separate entry of the source. Where two headings read alike, the source gives them in different places.

One assay has as its target T1, COX-2 (purified PGHS-2) (Ovis aries, UniProt P79208).
T1 construct: purified PGHS-2 (COX-2) from sheep placental cotyledones; purchased Cayman Chemical Company, Ann Arbor, Mich., USA; host or cells: sheep placental cotyledons (tissue-purified)
T1 sequence (P79208 17-603): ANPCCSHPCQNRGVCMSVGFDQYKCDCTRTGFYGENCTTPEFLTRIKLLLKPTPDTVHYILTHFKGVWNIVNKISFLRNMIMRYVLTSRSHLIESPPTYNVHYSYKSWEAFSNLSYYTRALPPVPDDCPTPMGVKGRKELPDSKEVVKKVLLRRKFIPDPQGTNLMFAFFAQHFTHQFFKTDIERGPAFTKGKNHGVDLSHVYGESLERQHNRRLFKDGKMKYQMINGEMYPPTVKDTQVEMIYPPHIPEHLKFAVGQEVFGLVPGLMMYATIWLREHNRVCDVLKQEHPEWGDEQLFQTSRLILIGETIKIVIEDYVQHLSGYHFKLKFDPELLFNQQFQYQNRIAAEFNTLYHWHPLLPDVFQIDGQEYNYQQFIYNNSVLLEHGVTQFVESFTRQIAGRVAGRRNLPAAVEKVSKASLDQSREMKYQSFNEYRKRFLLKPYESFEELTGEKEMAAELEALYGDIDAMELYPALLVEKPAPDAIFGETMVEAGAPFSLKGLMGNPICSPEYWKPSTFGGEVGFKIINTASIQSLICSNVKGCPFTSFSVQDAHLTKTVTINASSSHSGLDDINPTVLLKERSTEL
Description: COX-2 assay, purified enzyme, PGE2 EIA. The format is biochemical, sheep. The note with it: for inhibition at 50 µM: screening concentration 50 μM. Here is the method: (§1) Principle: The purified enzymes COX-1 and COX-2 are incubated with a defined concentration of test sample and arachidonic acid. After stopping the enzymatic reaction by addition of formic acid and dilution, the produced PGE2 is quantified by means of a PGE2 EIA kit.
(§2) Sample preparation: The test samples (extracts and pure compounds) are dissolved in ethanol. Extracts are tested in concentrations of 20 μg/ml for screening. Pure compounds are tested in concentrations of 50 μM for screening.
(§3) Incubation procedure: The assays are performed in a microtiter scale with purified PGHS-1 (COX-1) from ram seminal vesicles and purified PGHS-2 (COX-2) from sheep placental cotyledones (both: Cayman Chemical Company, Ann Arbor, Mich., USA). The incubation mixture consists of 180 μl 0.1 M TRIS/HCl-buffer (pH 8.0) (Roth, Karlsruhe, Germany), 5 μM hematin, (porcine, ICN, Aurora, Ohio, USA), 18 mM epinephrine hydrogen tartrate (Fluka, Buchs, Switzerland), 0.2 U of enzyme preparation and 50 μM Na2EDTA (only COX-2 assay, Titriplex III, Merck, Darmstadt, Germany). 10 μl of each test solution are added and the mixture is preincubated for 5 min at room temperature. The reaction is started by adding 10 μl of 5 μM arachidonic acid (Cayman Chemical Company) in EtOH p.a. and the reaction mixture is incubated at 37° C. The reaction is terminated after 20 min by addition of 10 μl of 10% formic acid.
(§4) PGE2 EIA: The concentration of PGE2, the main arachidonic acid metabolite in this reaction, is determined by a competitive PGE2 EIA kit (Assay Designs Inc., Ann Arbor, Mich., USA). All samples are diluted in EIA buffer. The EIA is incubated for 2 hours at room temperature on an orbital shaker. After a washing step, 200 μl of substrate solution are added to each well, and the EIA is incubated for 1 hour at room temperature. After addition of 50 μl stop solution, the EIA is evaluated photometrically by an ELISA microplate reader.
(§5) Inhibition of COX refers to reduction of PGE2 formation in comparison to a blank run without inhibitor. Inhibition values are means of at least 2 experiments and each sample is tested in duplicate. […] IC50 values of active samples were determined by testing at least 3 concentrations in 3 different experiments, in duplicate each. IC50 was calculated by logarithmic regression after graphical representation.

The target of another assay is T2, COX-1 (purified PGHS-1) (Ovis aries, UniProt P05979).
T2 construct: purified PGHS-1 (COX-1) from ram seminal vesicles; purchased Cayman Chemical Company, Ann Arbor, Mich., USA; host or cells: ram seminal vesicles (tissue-purified)
T2 sequence (P05979 25-600): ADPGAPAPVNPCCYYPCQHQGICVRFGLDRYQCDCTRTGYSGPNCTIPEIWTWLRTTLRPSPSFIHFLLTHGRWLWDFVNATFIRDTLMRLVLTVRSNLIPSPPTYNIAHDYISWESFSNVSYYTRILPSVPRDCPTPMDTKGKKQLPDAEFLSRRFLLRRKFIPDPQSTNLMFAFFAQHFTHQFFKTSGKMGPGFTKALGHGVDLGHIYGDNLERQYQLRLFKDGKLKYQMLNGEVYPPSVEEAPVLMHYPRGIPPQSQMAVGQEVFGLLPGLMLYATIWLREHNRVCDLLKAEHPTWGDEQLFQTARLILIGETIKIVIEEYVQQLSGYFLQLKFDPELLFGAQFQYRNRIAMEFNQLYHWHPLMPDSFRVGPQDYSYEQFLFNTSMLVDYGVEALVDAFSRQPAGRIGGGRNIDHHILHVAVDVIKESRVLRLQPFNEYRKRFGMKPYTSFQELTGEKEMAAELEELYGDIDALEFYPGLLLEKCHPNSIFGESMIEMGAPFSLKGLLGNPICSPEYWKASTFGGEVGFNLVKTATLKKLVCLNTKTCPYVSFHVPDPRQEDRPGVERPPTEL
Description: COX-1 assay, purified enzyme, PGE2 EIA. Type of assay: biochemical, ram. The note with it: for inhibition at 50 µM: screening concentration 50 μM. Here is the method:
as §1, §2, §3, §4, §5

Broadly, the inhibition is the change of the read-out against control, counted positive when it falls. What is called IC50 is the midpoint of a concentration-inhibition curve.

For `C=CC(C)(O)CCC1C(=C)CC(O)C2C(C)(C)CCCC12C` (stereo not drawn) [Larixol], the entries for the “IC50 COX-2” value on COX-2 (purified PGHS-2) and against COX-2 (purified PGHS-2) (listed as larixol) were “Inactive” and “inactive”, respectively. The inhibition at 50 µM on COX-2 (purified PGHS-2) was 8.7 ± 3.8%; at COX-1 (purified PGHS-1), 2.1 ± 4.7%. Besides, the “IC50 COX-1” value is “Inactive” on COX-1 (purified PGHS-1) and “inactive” against COX-1 (purified PGHS-1) (listed as larixol).
Consider `C=C[C@@]1(C)CC[C@H]2C(=CC[C@@H]3[C@]2(C)CCC[C@@]3(C)C(=O)O)C1` [Isopimaric acid], for which, on COX-2 (purified PGHS-2), the “IC50 COX-2” value is given as “without inhibiting; also recorded: Inactive” and the inhibition at 50 µM stood at 3.5 ± 6.2%. Further, at COX-1 (purified PGHS-1), the “IC50 COX-1” value was “without inhibiting; also recorded: Inactive” and the inhibition at 50 µM stood at 15.7 ± 7.1%.
`CC(C)c1ccc2c(c1)CCC1C(C)(CO)CCCC21C` (stereo not drawn) [Dehydroabietinol]: the “IC50 COX-2” value against COX-2 (purified PGHS-2) is “Inactive”; against COX-2 (purified PGHS-2) (listed as dehydroabietinol), “inactive”. Moreover, the inhibition at 50 µM is 7.7 ± 8% at COX-2 (purified PGHS-2) and -1.6 ± 4.6% at COX-1 (purified PGHS-1). For the same molecule, the “IC50 COX-1” value against COX-1 (purified PGHS-1) was “Inactive”; on COX-1 (purified PGHS-1) (listed as dehydroabietinol), “inactive”.
Regarding `CC(C)C1=CC2=C(CC1)C1(C)CCCC(C)(C(=O)O)C1CC2` (stereo not drawn) [Palustric acid], on COX-2 (purified PGHS-2) (IC50 COX-2), the IC50 was 57.9 µM. Besides, the values for the inhibition at 50 µM against COX-2 (purified PGHS-2) and at COX-1 (purified PGHS-1) were 49.5 ± 3.5% and 13.5 ± 4.7%, respectively. Also, the “IC50 COX-1” value against COX-1 (purified PGHS-1) is “Inactive”; on COX-1 (purified PGHS-1) (listed as palustric acid) it was “without inhibiting”.
For the molecule `CC(C)c1ccc2c(c1)CCC1C(C)(C(=O)O)CCCC21C` (stereo not drawn) [Dehydroabietic acid], on COX-2 (purified PGHS-2), the “IC50 COX-2” value is “Inactive” and the inhibition at 50 µM was -6 ± 9%. Further, on COX-1 (purified PGHS-1), the “IC50 COX-1” value was “Inactive” and the inhibition at 50 µM was 2.9 ± 7.8%.
With `C=CC(C)(O)CCC1C(=C)CC(OC(C)=O)C2C(C)(C)CCCC12C` (stereo not drawn) [Larixyl acetate], on COX-2 (purified PGHS-2), the “IC50 COX-2” value was “devoid of COX-2inhibitory activity” and the inhibition at 50 µM was found to be 38.5 ± 5.9%. For the same molecule, the IC50 on COX-2 (purified PGHS-2) (read-out: IC50 COX-2) is 95 µM and 95.1 µM. For the same molecule, at COX-1 (purified PGHS-1), the “IC50 COX-1” value was “Inactive” and the inhibition at 50 µM was 0.2 ± 5.9%.
